Drawing on article PMC2217055 (The Journal of General Physiology, 1997), this text covers IC50 and EC50 for two compounds.

For assay [1], the target named is T1, rat olfactory CNG channel subunit 1 (Rattus norvegicus, UniProt Q00195).
T1 sequence (Q00195 1-664): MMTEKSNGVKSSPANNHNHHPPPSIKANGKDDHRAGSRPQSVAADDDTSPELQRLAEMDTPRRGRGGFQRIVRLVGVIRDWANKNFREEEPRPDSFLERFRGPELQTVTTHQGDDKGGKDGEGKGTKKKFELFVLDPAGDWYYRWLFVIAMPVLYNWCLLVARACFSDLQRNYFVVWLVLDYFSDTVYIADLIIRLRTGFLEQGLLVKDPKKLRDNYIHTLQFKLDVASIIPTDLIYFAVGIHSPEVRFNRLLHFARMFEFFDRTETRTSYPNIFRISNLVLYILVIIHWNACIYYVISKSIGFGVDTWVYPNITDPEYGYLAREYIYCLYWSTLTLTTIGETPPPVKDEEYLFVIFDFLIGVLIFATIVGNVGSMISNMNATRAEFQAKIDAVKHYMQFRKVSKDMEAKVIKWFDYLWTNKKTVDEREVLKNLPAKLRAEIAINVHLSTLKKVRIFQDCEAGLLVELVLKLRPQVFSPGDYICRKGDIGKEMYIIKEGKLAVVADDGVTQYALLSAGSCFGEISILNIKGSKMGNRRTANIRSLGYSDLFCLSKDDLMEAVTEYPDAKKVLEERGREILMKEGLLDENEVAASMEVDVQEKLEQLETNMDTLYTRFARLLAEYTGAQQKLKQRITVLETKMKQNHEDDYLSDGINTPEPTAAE
The assay can be described thus: inside-out patch clamp, oocytes, Michaelis-Menten fit of block. The class given is cell-based. On the technique in general: Patch clamp records ionic current or voltage across a cell membrane.

The target of assay [2] is T1, rat olfactory CNG channel subunit 1. The assay can be described thus: inside-out patch clamp, cGMP dose-response of current. The class given is cell-based.

Regarding `CCCCNc1ccc(C(=O)OCCN(C)C)cc1` [tetracaine], the half-maximal inhibitory concentration (IC50) in assay [1] is 170 ± 22 µM.

On to `Nc1nc2c(ncn2[C@@H]2O[C@@H]3COP(=O)(O)O[C@H]3[C@H]2O)c(=O)[nH]1` [cGMP], for which the EC50 in assay [2] turned out to be 2.1 ± 0.12 µM.

A word on the IC50: it is the midpoint of a concentration-inhibition curve. In general, EC50 refers to the concentration at which the effect is half-maximal. The low end stands for higher potency in that assay, the high end for lower potency in that assay.
